Reference: patent US8399681B2, “Substituted aminothiazolone indazoles as estrogen related receptor-alpha modulators” (Janssen Pharmaceutica NV, priority 2009, dated 2013)

Target: T1, ERR1 (also known as ERR-α or ERR-1) (Homo sapiens, UniProt P11474)
T1 sequence (P11474 193-421 limits assumed): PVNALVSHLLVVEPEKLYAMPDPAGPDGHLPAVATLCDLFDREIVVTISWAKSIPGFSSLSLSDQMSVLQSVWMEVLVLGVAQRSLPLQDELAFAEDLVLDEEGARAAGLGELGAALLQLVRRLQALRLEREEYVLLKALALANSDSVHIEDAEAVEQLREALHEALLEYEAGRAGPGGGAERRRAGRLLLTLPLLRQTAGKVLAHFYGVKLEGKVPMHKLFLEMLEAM
Assay: TR-FRET assay (disruption of co-activator peptide binding)
Format: biochemical
Details: 6His-tagged ERR1 LBD, GST-hSRC2 co-activator polypeptide; average of 3 independent experiments
How it was run: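 His6-ERR1 LBD (6 nM) with GST-SRC-2 peptide (6 nM), anti-GST Eu cryptate (30 nM) and anti-His XL665 (7.5 nM) in Tris pH 8/KCl/DTT/BSA buffer, equilibrated 4-18 h at 25 °C. Ex 340, em 615/665 nm; hyperbolic dose-response fit, mean of 3 experiments.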

For `O=C1N=C(N2CC(N3CCOCC3)C2)S/C1=C\c1ccc2c(cnn2Cc2ccc(Cl)cc2C(F)(F)F)c1` [Example 205, 5-({1-[4-Chloro-2-(trifluoromethyl)benzyl]-1H-indazol-5-yl}methylidene)-2-(3-morpholin-4-ylazetidin-1-yl)-1,3-thiazol-4(5H)-one], which EC50 is on record?
Its EC50 is 30 nM.

Which EC50 does the source give for `COC[C@@H]1CN(C2=NC(=O)/C(=C/c3ccc4c(cnn4Cc4ccc(O)cc4C(F)(F)F)c3)S2)CCO1` [Example 236, 5-({1-[4-Hydroxy-2-(trifluoromethyl)benzyl]-1H-indazol-5-yl}methylidene)-2-[2(S)-(methoxymethyl)morpholin-4-yl]-1,3-thiazol-4(5H)-one] here?
Its EC50 is 3 nM.

With `O=C1N=C(N2CC(C(=O)O)C2)S/C1=C\c1ccc2c(cnn2Cc2ccc(Br)cc2C(F)(F)F)c1` [Example 36, 1-{5-[1-(4-Bromo-2-trifluoromethyl-benzyl)-1H-indazol-5-ylmethylene]-4-oxo-4,5-dihydro-thiazol-2-yl}-azetidine-3-carboxylic acid] as the compound, how does the EC50 read?
Its EC50 is 5.4 nM.

With `O=C1N=C(N2CCC[C@@H]2C(=O)O)S/C1=C\c1ccc2c(cnn2Cc2ccc(C(F)(F)F)cc2C(F)(F)F)c1` [Example 43, 1-{5-[1-(2,4-Bis-trifluoromethyl-benzyl)-1H-indazol-5-ylmethylene]-4-oxo-4,5-dihydro-thiazol-2-yl}-pyrrolidine-2-(R)-carboxylic acid] as the compound, how does the EC50 read?
Its EC50 is 11 nM.

`O=C1N=C(N2CCCN(CC(F)(F)F)CC2)S/C1=C\c1ccc2c(cnn2Cc2ccc(Cl)cc2C(F)(F)F)c1` [Example 135, 5-[1-(4-Chloro-2-trifluoromethyl-benzyl)-1H-indazol-5-ylmethylene]-2-[4-(2,2,2-trifluoro-ethyl)-[1,4]diazepan-1-yl]-thiazol-4-one] was tested. Which EC50 did it give?
Its EC50 is 52 nM.

For `O=C1N=C(N2CCC(O)(Cn3ccnc3)CC2)S/C1=C\c1ccc2c(cnn2Cc2ccc(Cl)cc2C(F)(F)F)c1` [Example 164, 5-[1-(4-Chloro-2-trifluoromethyl-benzyl)-1H-indazol-5-ylmethylene]-2-(4-hydroxy-4-imidazol-1-ylmethyl-piperidin-1-yl)-thiazol-4-one], which EC50 is on record?
Its EC50 is 12 nM.

How did the EC50 turn out when `CN1C[C@H]2CC[C@@H](C1)N2C1=NC(=O)/C(=C/c2ccc3c(cnn3Cc3ccc(Cl)cc3C(F)(F)F)c2)S1` [Example 87, 5-[1-(4-Chloro-2-trifluoromethyl-benzyl)-1H-indazol-5-ylmethylene]-2-(3-methyl-3,8-diaza-bicyclo[3.2.1]oct-8-yl)-thiazol-4-one] was run?
Its EC50 is 15 nM.

Which EC50 does the source give for `COC(=O)CNC(=O)[C@@H]1CN(C2=NC(=O)/C(=C/c3ccc4c(cnn4Cc4ccc(C(F)(F)F)cc4C(F)(F)F)c3)S2)CCO1` [Example 282, Methyl N-({(2S)-4-[5-({1-[2,4-bis(trifluoromethyl)benzyl]-1H-indazol-5-yl}methylidene)-4-oxo-4,5-dihydro-1,3-thiazol-2-yl]morpholin-2-yl}carbonyl)glycinate] here?
The EC50 was greater than 4000 nM.

With `C=C(C)c1ccc(Cn2ncc3cc(/C=C4\SC(N5CCN(C)CC5)=NC4=O)ccc32)c(C(F)(F)F)c1` [Example 30, 5-[1-(4-Isopropenyl-2-trifluoromethyl-benzyl)-1H-indazol-5-ylmethylene]-2-(4-methyl-piperazin-1-yl)-thiazol-4-one] as the compound, how does the EC50 read?
The EC50 was 23 nM.

How did the EC50 turn out when `CN1C[C@H]2CC[C@@H](C1)N2C1=NC(=O)/C(=C/c2ccc3c(cnn3Cc3ccc(C(F)(F)F)cc3C(F)(F)F)c2)S1` [Example 86, 5-[1-(2,4-Bis-trifluoromethyl-benzyl)-1H-indazol-5-ylmethylene]-2-(3-methyl-3,8-diaza-bicyclo[3.2.1]oct-8-yl)-thiazol-4-one] was run?
The EC50 was 20 nM.

How did the EC50 turn out when `O=C1N=C(N2CC[C@H]2C(=O)O)S/C1=C\c1ccc2c(cnn2Cc2ccc(C(F)(F)F)cc2C(F)(F)F)c1` [Example 49, 1-{5-[1-(2,4-Bis-trifluoromethyl-benzyl)-1H-indazol-5-ylmethylene]-4-oxo-4,5-dihydro-thiazol-2-yl}-azetidine-2-(S)-carboxylic acid] was run?
Its EC50 is 6 nM.

Which EC50 does the source give for `CC[C@H]1CN(C2=NC(=O)/C(=C/c3ccc4c(cnn4Cc4ccc(C(F)(F)F)cc4C(F)(F)F)c3)S2)CCN1` [Example 124, 5-[1-(2,4-Bis-trifluoromethyl-benzyl)-1H-indazol-5-ylmethylene]-2-(3-ethyl-piperazin-1-yl)-thiazol-4-one] here?
The EC50 was 9 nM.

With `CC(=O)c1cc(Cl)ccc1Cn1ncc2cc(/C=C3\SC(N4CCN(C)CC4)=NC3=O)ccc21` [Example 97, 5-[1-(2-Acetyl-4-chloro-benzyl)-1H-indazol-5-ylmethylene]-2-(4-methyl-piperazin-1-yl)-thiazol-4-one] as the compound, how does the EC50 read?
The EC50 was 29 nM.

How did the EC50 turn out when `CCOCCN1CCN(C2=NC(=O)/C(=C/c3ccc4c(cnn4Cc4ccc(C(F)(F)F)cc4C(F)(F)F)c3)S2)CC1` [Example 73, 5-[1-(2,4-Bis-trifluoromethyl-benzyl)-1H-indazol-5-ylmethylene]-2-[4-(2-ethoxy-ethyl)-piperazin-1-yl]-thiazol-4-one] was run?
The EC50 was 172 nM.

Which EC50 does the source give for `O=C1N=C(N2CCNC[C@@H]2C(=O)O)S/C1=C\c1ccc2c(cnn2Cc2ccc(C(F)(F)F)cc2C(F)(F)F)c1` [Example 47, 1-{5-[1-(2,4-Bis-trifluoromethyl-benzyl)-1H-indazol-5-ylmethylene]-4-oxo-4,5-dihydro-thiazol-2-yl}piperazine-2-(R)-carboxylic acid] here?
Its EC50 is 8.2 nM.

How did the EC50 turn out when `CNC(=O)CN1CCN(C2=NC(=O)/C(=C/c3ccc4c(cnn4Cc4ccc(Cl)cc4C(F)(F)F)c3)S2)CC1` [Example 82, 2-(4-{5-[1-(4-Chloro-2-trifluoromethyl-benzyl)-1H-indazol-5-ylmethylene]-4-oxo-4,5-dihydro-thiazol-2-yl}piperazin-1-yl)-N-methyl-acetamide] was run?
Its EC50 is 7.6 nM.

With `CONC(=O)C1CN(C2=NC(=O)/C(=C/c3ccc4c(cnn4Cc4ccc(Cl)cc4C(F)(F)F)c3)S2)CCN1` (stereo not shown) [Example 271, 4-[5-({1-[4-Chloro-2-(trifluoromethyl)benzyl]-1H-indazol-5-yl}methylidene)-4-oxo-4,5-dihydro-1,3-thiazol-2-yl]-N-methoxypiperazine-2-carboxamide] as the compound, how does the EC50 read?
The EC50 was 9 nM.

`CC1(C(=O)O)CCN(C2=NC(=O)/C(=C/c3ccc4c(cnn4Cc4ccc(Cl)cc4C(F)(F)F)c3)S2)CC1` [Example 75, 1-{5-[1-(4-Chloro-2-trifluoromethyl-benzyl)-1H-indazol-5-ylmethylene]-4-oxo-4,5-dihydro-thiazol-2-yl}-4-methyl-piperidine-4-carboxylic acid] was tested. Which EC50 did it give?
Its EC50 is 73.4 nM.

Which EC50 does the source give for `CC[C@H]1CNCCN1C1=NC(=O)/C(=C/c2ccc3c(cnn3Cc3ccc(Cl)cc3C(F)(F)F)c2)S1` [Example 255] here?
The EC50 was 28 nM.

`NC(=O)C1CN(C2=NC(=O)/C(=C/c3ccc4c(cnn4Cc4ccc(Cl)cc4C(F)(F)F)c3)S2)CCN1` (stereo not shown) [Example 273, 4-[5-({1-[4-Chloro-2-(trifluoromethyl)benzyl]-1H-indazol-5-yl}methylidene)-4-oxo-4,5-dihydro-1,3-thiazol-2-yl]piperazine-2-carboxamide] was tested. Which EC50 did it give?
The EC50 was 6 nM.

With `C[C@@H]1CN(C2=NC(=O)/C(=C/c3ccc4c(cnn4Cc4ccc(C(F)(F)F)cc4C(F)(F)F)c3)S2)C[C@H](C)N1` [Example 238, 5-({1-[2,4-(trifluoromethyl)benzyl]-1H-indazol-5-yl}methylidene)-2-(3,5-(cis)-dimethylpiperazin-1-yl)-1,3-thiazol-4(5H)-one] as the compound, how does the EC50 read?
Its EC50 is 11 nM.

`CN1CCN(C2=NC(=O)/C(=C/c3ccc4c(cnn4Cc4ccc(C(N)=O)cc4C(F)(F)F)c3)S2)CC1` [Compound 20, 4-{5-[2-(4-Methyl-piperazin-1-yl)-4-oxo-4H-thiazol-5-ylidenemethyl]-indazol-1-ylmethyl}-3-trifluoromethyl-benzamide] was tested. Which EC50 did it give?
The EC50 was 300 nM.

With `O=C1N=C(N2CCC[C@@H](C(=O)O)C2)S/C1=C\c1ccc2c(cnn2Cc2ccc(C(F)(F)F)cc2C(F)(F)F)c1` [Example 38, 1-{5-[1-(2,4-Bis-trifluoromethyl-benzyl)-1H-indazol-5-ylmethylene]-4-oxo-4,5-dihydro-thiazol-2-yl}-piperidine-3-(R)-carboxylic acid] as the compound, how does the EC50 read?
Its EC50 is 9 nM.

`O=C1N=C(N2CCO[C@H](CO)C2)S/C1=C\c1ccc2c(c1)c(Cl)nn2Cc1ccc(C(F)(F)F)cc1C(F)(F)F` [Example 184, 5-[1-(2,4-Bis-trifluoromethyl-benzyl)-3-chloro-1H-indazol-5-ylmethylene]-2-(2-(S)-hydroxymethyl-morpholin-4-yl)-thiazol-4-one] was tested. Which EC50 did it give?
Its EC50 is 3 nM.

For `CN1CCN(C2=NC(=O)/C(=C/c3ccc4c(cnn4Cc4ccc(Cl)cc4Br)c3)S2)CC1` [Example 95, 5-[1-(2-bromo-4-chlorobenzyl)-1H-indazol-5-ylmethylene]-2-(4-methyl-piperazin-1-yl)-thiazol-4-one], which EC50 is on record?
Its EC50 is 11 nM.

For `COCCOc1ccc(Cn2ncc3cc(/C=C4\SC(N5CCN(C)CC5)=NC4=O)ccc32)c(C(F)(F)F)c1` [Compound 24, 5-{1-[4-(2-Methoxy-ethoxy)-2-trifluoromethyl-benzyl]-1H-indazol-5-ylmethylene}-2-(4-methyl-piperazin-1-yl)-thiazol-4-one], which EC50 is on record?
Its EC50 is 520 nM.

`O=C1N=C(N2CCN(CCO)CC2)S/C1=C\c1ccc2c(cnn2Cc2ccc(C(F)(F)F)cc2C(F)(F)F)c1` [Compound 6, 5-[1-(2,4-Bis-trifluoromethyl-benzyl)-1H-indazol-5-ylmethylene]-2-[4-(2-hydroxy-ethyl)-piperazin-1-yl]-thiazol-4-one] was tested. Which EC50 did it give?
Its EC50 is 9 nM.

Which EC50 does the source give for `CN1C[C@@H]2C[C@H]1CN2C1=NC(=O)/C(=C/c2ccc3c(cnn3Cc3ccc(Cl)cc3C(F)(F)F)c2)S1` [Example 78, 5-[1-(4-Chloro-2-trifluoromethyl-benzyl)-1H-indazol-5-ylmethylene]-2-(5-methyl-2S,5S-diaza-bicyclo[2.2.1]hept-2-yl)-thiazol-4-one] here?
The EC50 was 4.5 nM.
